Source: patent publication EP0320984A2, “1,4-Dihydropyridine derivatives” (FUJIREBIO INC., priority 1987, dated 1989)

System: Rabbit platelet rich plasma (PRP)
Test: Inhibitory activity on platelet aggregation in rabbit platelet rich plasma (light transmission)
Type: cell-based
Settings: added to PRP 30 minutes before agent; for Inhibitory activity on platelet aggregation, PAF: compound 3x10^-6 (unit not given), Platelet activating factor (PAF) 10 mg/ml; for Inhibitory activity on platelet aggregation, ADP / Inhibitory activity on platelet aggregation, AA / Inhibitory activity on platelet aggregation, Collagen: compound 10^-4 (unit not given); for Inhibitory activity on platelet aggregation, ADP: Adenosine diphosphate (ADP) 5 mM; for Inhibitory activity on platelet aggregation, AA: Arachidonic acid (AA) 1 mM; for Inhibitory activity on platelet aggregation, Collagen: aggregating agent collagen
Protocol: 3. Experiment for inhibitory activity on platelet aggregation in rabbit:
Rabbit platelet rich plasma (PRP) was prepared by centrifugation of the citrated blood at 380 g for 10 minutes at 20°C. Test solution (10 µl) was added to PRP (200 µl) 30 minutes before treatment of aggregation agents (10 µl). The extent of aggregation was expressed with the maximum change in light transmission for PRP and platelet poor plasma was taken as a value of 100%

SMILES	Inhibitory activity on platelet aggregation, PAF [%]	Inhibitory activity on platelet aggregation, ADP [%]	Inhibitory activity on platelet aggregation, AA [%]	Inhibitory activity on platelet aggregation, Collagen [%]
COC(=O)C1=C(C)NC(C)=C(C(=O)OC/C=C/c2ccc(Cn3ccnc3)cc2)C1c1cccc([N+](=O)[O-])c1 (stereo not drawn) [Example 1, (E)-3-{4-(1-imidazolylmethyl)phenyl}-2-propen-1-yl methyl 1,4-dihydro-2,6-dimethyl-4-(3-nitrophenyl)pyridine-3,5-dicarboxylate]	35.4	7.3	26.2	19.5
COC(=O)C1=C(C)NC(C)=C(C(=O)OC/C=C/c2ccc(Cc3cccnc3)cc2)C1c1cccc([N+](=O)[O-])c1 (stereo not drawn) [Example 2, Methyl (E)-3-{4-(3-pyridylmethyl)phenyl}-2-propen-1-yl 1,4-dihydro-2,6-dimethyl-4-(3-nitrophenyl)pyridine-3,5-dicarboxylate]	0	5.5	12.6	23.5
COC(=O)C1=C(C)NC(C)=C(C(=O)OC/C=C/c2ccc(-n3ccnc3)cc2)C1c1cccc([N+](=O)[O-])c1 (stereo not drawn) [Example 3, (E)-3-{4-(1-imidazolyl)phenyl}-2-propen-1-yl methyl 1,4-dihydro-2,6-dimethyl-4-(3-nitrophenyl)pylidine-3,5-dicarboxylate]	0	2.2	19.3	33.2
COC(=O)C1=C(C)NC(C)=C(C(=O)OC/C=C/c2ccc(Cn3ccnc3)o2)C1c1cccc([N+](=O)[O-])c1 (stereo not drawn) [Example 4, (E)-3-{5-(1-imidazolylmethyl)-2-furan}-2-propen-1-yl methyl 1,4-dihydro-2,6-dimethyl-4-(3-nitrophenyl)pyridine-3,5-dicarboxylate]	95.6		30.8	30.5
COC(=O)C1=C(C)NC(C)=C(C(=O)OC/C=C/c2ccc(Cn3ccnc3)s2)C1c1cccc([N+](=O)[O-])c1 (stereo not drawn) [Example 5, (E)-3-{5-(1-imidazolylmethyl)-2-thiophene}-2-propen-1-yl methyl 1,4-dihydro-2,6-dimethyl-4-(3-nitrophenyl) pyridine-3,5-dicarboxylate]	100	12.0	33.4	32.3
COC(=O)C1=C(C)NC(C)=C(C(=O)OC/C=C(\C)c2ccc(Cn3ccnc3)cc2)C1c1cccc([N+](=O)[O-])c1 (stereo not drawn) [Example 6]	0	6.5	15.6	27.2
CCOC(=O)C1=C(C)NC(C)=C(C(=O)OC/C=C/c2ccc(Cn3ccnc3)cc2)C1c1cccc([N+](=O)[O-])c1 (stereo not drawn) [Example 7, Ethyl (E)-3-{4-(1-imidazolylmethyl)phenyl}-2-propen-1-yl 1,4-dihydro-2,6-dimethyl-4-(3-nitrophenyl)pyridine-3,5-dicarboxylate]	0	4.3	17.8	30.9
COC(=O)C1=C(C)NC(C)=C(C(=O)OC/C(C)=C/c2ccc(Cn3ccnc3)cc2)C1c1cccc([N+](=O)[O-])c1 (stereo not drawn) [Example 8, (E)-3-{4-(1-imidazolylmethyl)phenyl}-2-methyl-2-propen-1-yl methyl 1,4-dihydro-2,6-dimethyl-4-(3-nitro-phenyl)pyridine-3,5-dicarboxylate]	28.9	10.8	18.8	18.9
COC(=O)C1=C(C)NC(C)=C(C(=O)OC/C=C/c2ccc(Cn3cnnc3)cc2)C1c1cccc([N+](=O)[O-])c1 (stereo not drawn) [Example 9]	78.8	6.5	5.9	11.1
COC(=O)C1=C(C)NC(C)=C(C(=O)OC/C=C/c2ccc(Cn3cncn3)cc2)C1c1cccc([N+](=O)[O-])c1 (stereo not drawn) [Example 10, Methyl (E)-3-{4-(1,2,4-triazol-1-ylmethyl)phenyl}-2propen-1-yl 1,4-dihydro-2,6-dimethyl-4-(3-nitrophenyl)pyridine-3,5-dicarboxylate]	24.4	2.1	5.0	5.5
COC(=O)C1=C(C)NC(C)=C(C(=O)OC/C=C/c2ccc(Cn3cnnn3)cc2)C1c1cccc([N+](=O)[O-])c1 (stereo not drawn) [Example 11, Methyl (E)-3-{4-(1,2,3,4-tetrazol-1-ylmethyl)phenyl}-2-propen-1-yl 1,4-dihydro-2,6-dimethyl-4-(3-nitrophenyl)pyridine-3,5-dicarboxylate]	31.1	1.3	2.9	7.1
COC(=O)C1=C(C)NC(C)=C(C(=O)OC/C=C/c2ccc(Cn3ccnc3)cc2)C1c1cccc(Cl)c1Cl (stereo not drawn) [Example 12, (E)-3-{4-(1-imidazolylmethyl)phenyl}-2-propen-1-yl methyl 1,4-dihydro-2,6-dimethyl-4-(2,3-dichlorophenyl)pyridine-3,5-dicarboxylate]	51.8	7.3	11.4	10.3
COC(=O)C1=C(C)NC(C)=C(C(=O)OC/C(F)=C/c2ccc(Cn3ccnc3)cc2)C1c1cccc([N+](=O)[O-])c1 (stereo not drawn) [Example 13, (Z)-3-{4-(1-imidazolylmethyl)phenyl}-2-fluoro-2-propen-1-yl methyl 1,4-dihydro-2,6-dimethyl-4-(3-nitrophenyl)pyridine-3,5-dicarboxylate]	49.6	10.9	17.4	6.3
CC1=C(C(=O)OC/C=C/c2ccccc2)C(c2cccc([N+](=O)[O-])c2)C(C(=O)OC/C=C/c2ccc(Cn3ccnc3)cc2)=C(C)N1 (stereo not drawn) [Example 14, (E)-cinnamyl (E)-3-{4-(1-imidazolylmethyl)phenyl}-2-propen-1-yl 1,4-dihydro-2,6-dimethyl-4-(3-nitrophenyl)pyridine-3,5-dicarboxylate]	44.7	4.3	42.0	69.6
COCCOC(=O)C1=C(C)NC(C)=C(C(=O)OC/C=C/c2ccc(Cn3ccnc3)cc2)C1c1cccc([N+](=O)[O-])c1 (stereo not drawn) [Example 16, (E)-3-{4-(1-imidazolylmethyl)phenyl}-2-propen-1-yl 2-methoxyethyl 1,4-dihydro-2,6-dimethyl-4-(3-nitrophenyl)pyridine-3,5-dicarboxylate]	42.4	7.1	33.7	24.7
COC(=O)C1=C(C)NC(C)=C(C(=O)OC/C=C/c2ccc(Cn3ccnc3)cc2)C1c1cccc(C(F)(F)F)c1 (stereo not drawn) [Example 17, (E)-3-{4-(1-imidazolylmethyl)phenyl}-2-propen-1-yl methyl 1,4-dihydro-2,6-dimethyl-4-(3-trifluoromethylphenyl)pyridine-3,5-dicarboxylate]	39.7	10.5	37.8	55.0
COC(=O)C1=C(C)NC(C)=C(C(=O)OC/C=C/c2ccc(Cn3ccnc3)cc2)C1c1ccccc1C#N (stereo not drawn) [Example 18, (E)-3-{4-(1-imidazolylmethyl)phenyl}-2-propen-1-yl methyl 1,4-dihydro-2,6-dimethyl-4-(2-cyanophenyl)pyridine-3,5-dicarboxylate]	48.6	8.8	30.4	61.8
COC(=O)C1=C(C)NC(C)=C(C(=O)OC/C=C/c2ccccc2Cn2ccnc2)C1c1cccc([N+](=O)[O-])c1 (stereo not drawn) [Example 20, (E)-3-{2-(1-imidazolylmethyl)phenyl}-2-propen-1-yl methyl 1,4-dihydro-2,6-dimethyl-4-(3-nitrophenyl)pyridine-3,5-dicarboxylate]	0	9.5	30.4	32.3
COC(=O)C1=C(C)NC(C)=C(C(=O)OC/C=C/c2cccc(Cn3ccnc3)c2)C1c1cccc([N+](=O)[O-])c1 (stereo not drawn) [Example 21, (E)-3-{3-(1-imidazolylmethyl)phenyl}-2-propen-1-yl methyl 1,4-dihydro-2,6-dimethyl-4-(3-nitrophenyl)pyridine-3,5-dicarboxylate]	25.4	17.3	37.6	29.5
